According to patent US5703056A, “Non-invasive imaging of gene transfer” (priority 1995, dated 1997):
Like-named read-outs stand apart in the source and are kept apart here.

Tests used:
[1] = Calculated permeability surface area product (PS) of the cerebral capillaries; parameters: unit not given here; conditions: for PS*: calculated from measured log P and MW: log(PS)=5.2+log(P·Dm); for PS+: calculated from published log P and MW: log(PS)=5.2+log(P·Dm)
Excerpt: Passage of the nucleosides across the blood brain barrier (BBB) is an important factor to consider in the design of radiolabelled 2'-fluoro-nucleoside analogues for imaging HSV1-TK expression in the brain. […] It is known that brain capillary permeability for many compounds is related to their octanol/water partition coefficient (P) and molecular weight. [Levin, V. N. J. Med. Chem., 23: 682-4, 1980] Several authors have described a relationship between the brain capillary permeability and log P or log P·Dm, where Dm is a measure of diffusibility. […] [Dischino, D. D., Welch, M. J., Kilbourn, M. N., and Raichle, M. E., J. Nucl. Med., 24: 1030-8, 1983] […] Fenstermacher, J. D. Drug transfer across the blood brain barrier. In: Topics in Pharmaceutical Sciences. Ed.: Breimer, D. D., and Speiser, P. Amsterdam: Elsevier, pp. 143-54, 1983; Fenstermacher, J. D., and Rapoport, S. I. In: Handbook of Physiology. The Cardiovascular System. Microcirculation. Bethesda, Md.: Am. Physiol. Soc., sect. 2, Vol. IV, pt. 2, chapt. 21, p. 969-1000, 1984; Fenstermacher, J. D. In: Implications of Blood-Brain Barrier and Its Manipulation. Basic Science Aspects. Ed. by Neuwelt, E., New York: Plenum, Vol. 1, Chapt. 6, pp. 132-55, 1988]

[2] = cited from earlier work; for lipophilicity and blood-brain barrier permeability compared with FIAU: compared with FIAU (FAIU [sic]), Iwashina et al. 1988
physchem = type: physicochemical; conditions: octanol/water
Excerpt: It is known that brain capillary permeability for many compounds is related to their octanol/water partition coefficient (P) and molecular weight. [[…]. Med. […] [Dischino, […]., and […]. Nucl. […] […]. Drug transfer across the blood brain barrier. In: Topics in Pharmaceutical Sciences. Ed.: Breimer, D. D., and […]. […] […]., and Rapoport, S. I. In: Handbook of Physiology. The Cardiovascular System. Microcirculation. Bethesda, Md.: Am. Physiol. Soc., sect. 2, Vol. IV, […]. 969-1000, 1984; […]. In: Implications of Blood-Brain Barrier and Its Manipulation. Basic Science Aspects. Ed. by Neuwelt, E., New York: Plenum, Vol. 1, […]. 132-55, 1988] […] [Xu, […]., Knaus, E. E., and Wiebe, L. I. In: Advances in Radiopharmacology. […]., Snowdon, G. M., Boniface, G. R., Univ. of Wollongong Printing Service, Wollongong, Australia, pp. 283-298, 1990] […] […]).

HSV1-TK [3] = target: T1, HSV1-TK (Human alphaherpesvirus 1 strain 17, UniProt P0DTH5); test: Accumulation of radiolabelled marker substrates in RG2TK+ transduced and RG2 wild-type cells, normalized to TdR; type: cell-based, herpes simplex virus
T1 sequence (P0DTH5 whole entry): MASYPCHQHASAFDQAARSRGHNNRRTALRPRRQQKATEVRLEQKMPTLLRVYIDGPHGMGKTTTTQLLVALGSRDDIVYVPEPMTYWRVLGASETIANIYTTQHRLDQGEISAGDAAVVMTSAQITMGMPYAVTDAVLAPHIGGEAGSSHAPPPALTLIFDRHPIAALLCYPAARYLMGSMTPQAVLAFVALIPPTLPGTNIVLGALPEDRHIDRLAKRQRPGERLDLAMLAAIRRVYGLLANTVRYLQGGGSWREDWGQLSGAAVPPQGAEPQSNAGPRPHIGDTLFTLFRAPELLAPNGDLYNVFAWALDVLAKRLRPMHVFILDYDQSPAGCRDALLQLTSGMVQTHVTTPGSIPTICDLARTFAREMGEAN
Experimental: Source of radiolabelled "marker substrates". […] No carrier-added 5-[^123 I]-deoxyuridine (IUdR) was prepared by reacting 2-deoxyuridine (UdR) with carrier-free ^123 I-labelled sodium iodide in an iodogen coated reaction vial.
Comparison of "marker substrates" for identifying HSV1-tk gene expression in tissue culture. […] Each of these substrates were developed for or used as an anti-viral agent; they are phosphorylated by HSV1-TK and can be radiolabelled for noninvasive imaging.
Wild-type (nontransduced) RG2 cells were studied as a reference control. […] The cells were dislodged from the Petri dishes with a soft scraper, poured into 15 ml conical tubes, centrifuged and the medium aspirated. The tubes were cut to facilitate removing cells; they were blotted, placed in pre-weighed vials, weighed and prepared for counting. Samples were assayed for ^3 H- and ^14 C-radioactivity using a Packard B1600 TriCarb beta spectrometer using dual-channel and external standard splash and quench correction techniques. The medium was also counted before and following incubation. The data was expressed as a harvested cell-to-medium concentration ratio (dpm/g cells.div.dpm/ml medium).
(§1) Data analysis. […] These two related measures are useful to evaluate the intensity of the images (e.g., high "sensitivity") and the ability to differentiate between HSV1-TK and endogenous-TK in the images (e.g., high "selectivity"). The "selectivity" measure is not interpreted as a relative sensitivity (i.e., a value of 1 indicating equal sensitivity) of the substrate to HSV1-TK vs. endogenous-TK. […] They are intended for the direct comparison of substrates only.

RG2TK+ and RG2 tumors = test: Tissue sampling of FIAU- and IUdR-derived radioactivity in i.c. and s.c. RG2TK+ and RG2 tumors; type: in vivo, rat; conditions: 24 h; for Sensitivity* (uptake in RG2TK+ tumor - uptake in RG2 tumor)/(HSV1TK mRNA/S28 RNA IOD in RG2TK+ cells): percent dose per gram
Experimental: Animal preparation and tumor inoculation Two male Fisher 344 rats weighing 250±20 g were anesthetized with a gas mixture consisting of 2% Isoflurane, 70% nitrous oxide and 30% oxygen. A 2% lidocaine gel was applied to the ears and the head was fixed with a stereotaxic device. After midline scalp incision, a burr hole was made through the skull 1 mm posterior and 3 mm lateral to the bregma. The tumor cell suspensions were aspirated into a 50 μl gas tight Hamilton syringe (Ga. 25) and attached to a stereotaxic device. The syringe needle was then inserted 6 mm deep into the caudate nucleus and the cell suspension (10^5 cells in 10 μl) was slowly injected over 2 minutes. RG2TK+ cells were injected into the left hemisphere, and RG2 cells were injected into the right hemisphere. Bone wax was applied to cover the skull defect and the scalp was closed with 4.0 silk suture. Subcutaneous inoculations (10^6 cells in 50 μl) were also performed (RG2TK+ cells into the left flank and RG2 cells into the right flank). After the procedure, the animals were marked and placed in standard cages with water and Rodent LabChow #5001 (Purina Mills, Inc.) ad libitum. Comparison of different "marker substrates" for identifying HSV1-TK expression in animals After 10 days of tumor growth, both animals received i.v. injections of [^123 I]-IUdR (400 uCi) and [^14 C]-FIAU (10 uCi). Radioactivity was allowed to clear from the body over 24 hours to reduce tissue background activity, predominantly due to radiolabelled iodide, the major metabolite of [^123 I]-IUdR. [Tjuvajev, J. G., Muraki, A., Ginos, J., Berk, J., Koutcher, J., Ballon, D., Beattie, B., Finn, R., and Biasberg, R., J. Nucl. Med., 34: 1152-62, 1993; Tjuvajev, J. G., Macapinlac, H. A., Daghighian, F., Scott, A. M., ginos, J. Z., Finn, R. D., Kothari, P., Desai, R., Zhang, Z., Beattie, B., Graham, M., Larson, S., and Blasberg, R. G., J. Nucl. Med., 35: 1407-17, 1994] The rats were killed at 24 hours under anesthesia; samples of tumor and adjacent tissue were disected and weighed, blood and plasma were obtained, and radioactivity was measured. Decay corrected ^123 I-radioactivity was assayed in a Packard AutoGamma 5550 Spectrometer; samples were stored in a refrigerator for 1 week to allow for ^123 I decay (>12 half lives) and ^14 C-radioactivity was measured in a Packard B1600 TriCarb beta spectrometer using external standard quench correction. Sample radioactivity was expressed as a percent of administered dose per gram of tissue of per unit volume of fluid.

HSV1-TK [4] = target: T1, HSV1-TK; test: Single 120 minute paired accumulation of FIAU and IUdR by RG2TK+ and RG2 cells; type: cell-based, herpes simplex virus; conditions: Data from FIG. 6A
Experimental: The processing of cells and incubation medium was the same as that described above. A portion of the harvested cells was also processed for acid-insoluble (10% TCA) radioactivity. Decay corrected ^123 I-radioactivity was measured in a Packard AutoGamma 5550 Spectrometer. Samples were stored for 1 week to allow for ^123 I decay (12 half lives), and recounted afterwards in the Packard B1600 TriCarb beta spectrometer to determine ^3 H- and ^14 C-radioactivity.
All radioactivity measurements were expressed as a percent of administered dose per gram of tissue or per unit volume of fluid as described above.
as §1

[5] = log P values published by Xu, et al.

Row | PS* [1] | PS+ [1] | logP (physchem) | Compound | further results
1 | 0.02 |  |  | O=c1[nH]c(=O)n([C@@H]2O[C@H](CO)[C@@H](O)[C@H]2F)cc1F [FFRU] | 
2 |  |  |  | CCc1cn([C@@H]2O[C@H](CO)[C@@H](O)[C@H]2F)c(=O)[nH]c1=O [FERU, 5-ethyl-2'-fluoro-1-β-D-ribofuranosyl-uracil] | lipophilicity and blood-brain barrier permeability compared with FIAU [2]: higher lipophilicity and better permeability through the blood-brain barrier
3 |  | 0.31 |  | CCc1cn([C@@H]2O[C@H](CO)[C@@H](O)[C@@H]2F)c(=O)[nH]c1=O [FEAU, 2'-fluoro-5-ethyl-1-β-D-arabinofuranosyl-uracil] | lipophilicity and blood-brain barrier permeability compared with FIAU [2]: higher lipophilicity and better permeability through the blood-brain barrier
4 | 0.45 |  |  | O=c1[nH]c(=O)n([C@@H]2O[C@H](CO)[C@@H](O)[C@H]2F)cc1I [FIRU, 2'-fluoro-5-iodo-1-β-D-ribofuranosyl-uracil] | 
5 |  |  |  | O=c1[nH]c(=O)n([C@@H]2O[C@H](CO)[C@@H](O)[C@@H]2F)cc1C=CI [FIVAU, 2'-fluoro-5-iodovinyl-1-β-D-arabinofuranosyl-uracil] | lipophilicity and blood-brain barrier permeability compared with FIAU [2]: higher lipophilicity and better permeability through the blood-brain barrier
6 | 0.08 |  | -1.09 | O=c1[nH]c(=O)n([C@@H]2O[C@H](CO)[C@@H](O)[C@@H]2F)cc1F [FFAU, 2'-fluoro-5-fluoro-1-β-D-arabinofuranosyl-uracil] | 
7 |  | 0.00052 | -2.48 | CC(C)(N)C(=O)O [AIB] | 
8 | 0.05 | 0.03 | -0.131 | O=c1ccn([C@H]2C[C@H](O)[C@@H](CO)O2)c(=O)[nH]1 [UdR, 2-deoxyuridine] | Log P+ [2, 5]: -1.48
9 | 13.03 |  | 1.21 | O=c1[nH]c(=O)n([C@@H]2O[C@H](CO)[C@@H](O)[C@H]2F)cc1C=CI [FIVRU, 2'-fluoro-5-iodovinyl-1-β-D-ribofuranosyl-uracil] | lipophilicity and blood-brain barrier permeability compared with FIAU [2]: higher lipophilicity and better permeability through the blood-brain barrier
10 | 10.29 |  |  | O=c1[nH]c(=O)n([C@H]2C[C@H](O)[C@@H](CO)O2)cc1/C=C/I [5-IVdU] | Log P* (physchem): 1.10
11 | 0.03 | 0.03 | -1.52 | O=c1[nH]c(=O)n([C@H]2C[C@H](O)[C@@H](CO)O2)cc1F [5-FUdR] | Log P+ ([2]; octanol/water): -1.51
12 |  | 0.00009 | -3.89 | O=C(O)CN(CCN(CC(=O)O)CC(=O)O)CCN(CC(=O)O)CC(=O)O [DTPA] | 

Row | Compound | PS* [1] | PS+ [1] | logP (physchem) | further results
13 | O=c1[nH]c(=O)n([C@H]2C[C@H](O)[C@@H](CO)O2)cc1I [IUdR, 5-iodo-2'-deoxy-uridine] | 0.11 | 0.14 | -0.089 | Selectivity+ Sensitivity*/(substrate/TdR) for RG2 (HSV1-TK [3]; Data from FIG. 5): 0.006; Sensitivity* Δ(substrate/TdR)/Δ(HSV1TK mRNA/S28 RNA IOD) (HSV1-TK [3]; Data from FIG. 5): 0.0029; accumulation in bulk RG2TK+ cells relative to wild-type RG2 cells (HSV1-TK [3]; normalized to TdR, FIGS. 4 and 5B): 1.2 fold; Log P+ [2, 5]: -0.76; Selectivity+ Sensitivity*/(uptake in RG2 tumor) (RG2TK+ and RG2 tumors; RG2TK+/RG2 i.c. tumors): 0.009; Sensitivity* (uptake in RG2TK+ tumor - uptake in RG2 tumor)/(HSV1TK mRNA/S28 RNA IOD in RG2TK+ cells) (RG2TK+ and RG2 tumors; RG2TK+/RG2 i.c. tumors): 0.0001; Selectivity+ Sensitivity*/(uptake in RG2 tumor) (RG2TK+ and RG2 tumors; RG2TK+/RG2 s.c. tumors): 0.020; Sensitivity* (uptake in RG2TK+ tumor - uptake in RG2 tumor)/(HSV1TK mRNA/S28 RNA IOD in RG2TK+ cells) (RG2TK+ and RG2 tumors; RG2TK+/RG2 s.c. tumors): 0.0007; Selectivity+ Sensitivity*/(substrate/TdR) for RG2 (HSV1-TK [4]): 0.002; Sensitivity* Δ(substrate/TdR)/Δ(HSV1TK mRNA/S28 RNA IOD) (HSV1-TK [4]): 0.0011
14 | Cc1cn([C@H]2C[C@H](O)[C@@H](CO)O2)c(=O)[nH]c1=O [TdR, thymidine] |  |  | -0.8 | Log P+ ([2]; octanol/water): -1.12
